Test system: PxXyl43A
Experiment: p-nitrophenol release, absorbance at […] nm
Assay type: biochemical, Paenibacillus xylaniclasticus
Details: pH 7.0, 50 mM potassium phosphate, 54 °C, 1.5 min, 1.8 to 9.0 mM pNPX

Km: 1200 µM
SMILES: O=[N+]([O-])c1ccc(O[C@@H]2OC[C@@H](O)[C@H](O)[C@H]2O)cc1 [pNPX]
